From patent US20240294551A1 (AMGEN INC., priority 2022, published 2024) come the findings set out here.

Each structure is given as a SMILES string. Read-outs that look alike come from different tables or passages of the source.

Test [1] concerns the target His-tagged KRAS G12D protein (Homo sapiens (Human), UniProt P01116, G12D). Briefly: KRAS G12D TR-FRET Assay. It counts as binding. In a few lines: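 His-tagged KRAS G12D (diluted to 20 nM in pH 7.4 HEPES buffer with 10 mM MgCl2 and 10 μM GDP) was preincubated with titrated compound for 30 min at room temperature. Biotinylated KRPep-2d peptide (diluted to 20 nM) was then added for 1 h, and displacement was monitored by TR-FRET.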

The target of test [2] is GDP-bound KRAS protein (aa 1-169), containing both G12D and C118A amino acid substitutions (Homo sapiens (Human), UniProt P01116, C118A/G12D). Kind of test: KRAS G12D Coupled Nucleotide Exchange Assay. The test is classed as biochemical.
GDP-bound KRAS protein (aa 1-169), containing both G12D and C118A amino acid substitutions, sequence (P01116 other isoform, or with tags, fused parts or gaps G12D/C118A): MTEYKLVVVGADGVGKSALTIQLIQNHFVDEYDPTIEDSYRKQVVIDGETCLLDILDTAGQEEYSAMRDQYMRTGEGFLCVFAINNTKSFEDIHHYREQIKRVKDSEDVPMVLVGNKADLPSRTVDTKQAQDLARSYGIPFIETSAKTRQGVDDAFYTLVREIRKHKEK
[3] abbreviates: read-out: KRAS G12D Binding IC50.
Setting [4] is: read-out: KRAS G12D Coupled Exchange IC50.
The mark [5] stands for this setting: TR-FRET, read-out: KRAS G12D Binding.
The mark [6] stands for this setting: 2 hours compound pre-incubation, read-out: KRAS G12D Coupled Exchange.

His-tagged KRAS G12D protein, sequence (P01116 other isoform, or with tags, fused parts or gaps G12D): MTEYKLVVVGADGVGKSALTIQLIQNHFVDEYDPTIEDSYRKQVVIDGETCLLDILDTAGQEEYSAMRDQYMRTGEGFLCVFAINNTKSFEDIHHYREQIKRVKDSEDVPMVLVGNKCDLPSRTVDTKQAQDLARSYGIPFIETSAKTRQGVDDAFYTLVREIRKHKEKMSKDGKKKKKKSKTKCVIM

Consider `Fc1c2ncc3c(nc(OC[C@@]45CCCN4C[C@H](F)C5)nc13)N1CCOC[C@@H](C1)c1cnn(n1)CCCc1c(Cl)cc3[nH]ncc3c1-2` [Example 297, (1S)-10-chloro-33-fluoro-24-(((2R,7aS)-2-fluorotetrahydro-1H-pyrrolo[1,2-a]pyrrol-7a(5H)-yl)methoxy)-30-oxa-4,5,13,14,19,23,25,27,34-nonaazaheptacyclo[25.4.1.1~2,5~.1~18,22~.0~9,17~.0~12,16~.0~21,26~]tetratriaconta-2(34),3,9,11,14,16,18(33),19,21,23,25-undecaene], for which the IC50 in test [1] (setting [3]) came to 8070 nM; in test [2] (setting [4]), 5980 nM.

For the compound `O=C1N[C@@H]2CCCCN(C2)c2nc(OC[C@@]34CCCN3C[C@H](F)C4)nc3c(F)c(ncc23)-c2c3c(cc4[nH]ncc24)CC[C@@H]3CCO1` [Example 302, (16R,22R)-34-fluoro-8-(((2R,7aS)-2-fluorotetrahydro-1H-pyrrolo[1,2-a]pyrrol-7a(5H)-yl)methoxy)-19-oxa-3,7,9,11,17,28,29-heptaazaheptacyclo[20.9.1.1~2,6~.1~11,16~.0~5,10~.0~25,32~.0~27,31~]tetratriaconta-1(31),2(34),3,5,7,9,25(32),26,29-nonaen-18-one], the IC50 in test [1] (setting [3]) came out at 1270 nM; in test [2] (setting [4]), 831 nM.

Regarding `CN(C)CC1(COc2nc3c4cc(F)c(c(F)c4n2)-c2c(c(Cl)cc4[nH]ncc24)CCCOC(=O)O[C@@H]2COCCN3C2)CC1` [Example 306, m-(26S)-18-chloro-4-((1-((dimethylamino)methyl)cyclopropyl)methoxy)-9,32-difluoro-23,25,28-trioxa-1,3,5,14,15-pentaazahexacyclo[24.4.1.1~6,10~.0~2,7~.0~11,19~.0~12,16~]dotriaconta-2,4,6,8,10(32),11,13,16,18-nonaen-24-one], the figures for the IC50 in test [1] (setting [3]) and in test [2] (setting [4]) were 695 nM and 450 nM, respectively.

For `O=C1OCCCc2c(Cl)cc3[nH]ncc3c2-c2ncc3c(nc(OC[C@@]45CCCN4C[C@H](F)C5)nc3c2F)N2CCOC[C@@](CF)(C2)O1` [Example 310, (26R)-18-chloro-32-fluoro-26-(fluoromethyl)-4-(((2R,7aS)-2-fluorotetrahydro-1H-pyrrolo[1,2-a]pyrrol-7a(5H)-yl)methoxy)-23,25,28-trioxa-1,3,5,9,14,15-hexaazahexacyclo[24.4.1.1~6,10~.0~2,7~.0~11,19~.0~12,16~]dotriaconta-2,4,6(32),7,9,11,13,16,18-nonaen-24-one], the IC50 in test [1] (setting [3]) came out at 2260 nM; in test [2] (setting [4]) it was 1490 nM.

For `O=C1OCCc2c(Cl)cc3[nH]ncc3c2-c2ncc3c(nc(OC[C@@]45CCCN4C[C@H](F)C5)nc3c2F)N2CCOC[C@]3(C2)C[C@@H](C3)O1` [Example 317, (1S,3S)-10-chloro-33-fluoro-24-(((2R,7aS)-2-fluorotetrahydro-1H-pyrrolo[1,2-a]pyrrol-7a(5H)-yl)methoxy)-4,6,30-trioxa-13,14,19,23,25,27-hexaazaheptacyclo[25.4.1.1~1,3~.1~18,22~.0~9,17~.0~12,16~.0~21,26~]tetratriaconta-9,11,14,16,18(33),19,21,23,25-nonaen-5-one], the figures for the IC50 in test [1] (setting [3]) and in test [2] (setting [4]) were 50 nM and 35 nM, respectively.

As to `O=C1OCCCCc2c(Cl)cc3[nH]ncc3c2-c2ncc3c(nc(OC[C@@]45CCCN4C[C@H](F)C5)nc3c2F)N2CCOC[C@H](C2)O1` [Example 324, (27S)-18-chloro-33-fluoro-4-(((2R,7aS)-2-fluorotetrahydro-1H-pyrrolo[1,2-a]pyrrol-7a(5H)-yl)methoxy)-24,26,29-trioxa-1,3,5,9,14,15-hexaazahexacyclo[25.4.1.1~6,10~.0~2,7~.0~11,19~.0~12,16~]tritriaconta-2,4,6,8,10(33),11,13,16,18-nonaen-25-one], the IC50 in test [1] (setting [3]) worked out at 61 nM; in test [2] (setting [4]), 42 nM.

As to `CN(C)CC1(COc2nc3c4cnc(c(F)c4n2)-c2c(c(Cl)cc4[nH]ncc24)CCCOC(=O)O[C@@]2(C)COCCN3C2)CC1` [Example 332, (26R)-18-chloro-4-((1-((dimethylamino)methyl)cyclopropyl)methoxy)-32-fluoro-26-methyl-23,25,28-trioxa-1,3,5,9,14,15-hexaazahexacyclo[24.4.1.1~6,10~.0~2,7~.0~11,19~.0~12,16~]dotriaconta-2,4,6,8,10(32),11,13,16,18-nonaen-24-one], the IC50 was 3240 nM in test [1] (setting [3]) and 2110 nM in test [2] (setting [4]).

With `CN1CCC[C@H]1COc1nc2c3cnc(c(F)c3n1)-c1c(c(Cl)cc3[nH]ncc13)CCCOC(=O)O[C@@]1(CF)COCCN2C1` [Example 337, (26R)-18-chloro-32-fluoro-26-(fluoromethyl)-4-(((2S)-1-methyl-2-pyrrolidinyl)methoxy)-23,25,28-trioxa-1,3,5,9,14,15-hexaazahexacyclo[24.4.1.1~6,10~.0~2,7~.0~11,19~.0~12,16~]dotriaconta-2,4,6,8,10(32),11,13,16,18-nonaen-24-one], the IC50 turned out to be 2440 nM in test [1] (setting [3]) and 790 nM in test [2] (setting [4]).

As to `Cn1ncc2cc(Cl)c3c(c21)-c1ncc2c(nc(OC[C@@]45CCCN4C[C@H](F)C5)nc2c1F)N1CCOC[C@H](C1)OC(=O)OCCC3` [Example 364, (26S)-18-chloro-32-fluoro-4-(((2R,7aS)-2-fluorotetrahydro-1H-pyrrolo[1,2-a]pyrrol-7a(5H)-yl)methoxy)-13-methyl-23,25,28-trioxa-1,3,5,9,13,14-hexaazahexacyclo[24.4.1.1~6,10~.0~2,7~.0~11,19~.0~12,16~]dotriaconta-2,4,6,8,10(32),11,14,16,18-nonaen-24-one], the IC50 in test [1] (setting [3]) amounted to 102 nM; in test [2] (setting [4]), 20 nM.

With `C[C@@]12COCCN(C1)c1nc(OC[C@@]34CCCN3C[C@H](F)C4)nc3c(F)c(ncc13)-c1c3c(cc4[nH]ncc14)CC[C@@H]3CCOC(=O)O2` [Example 366, (16S,22R)-34-fluoro-8-(((2R,7aS)-2-fluorotetrahydro-1H-pyrrolo[1,2-a]pyrrol-7a(5H)-yl)methoxy)-16-methyl-14,17,19-trioxa-3,7,9,11,28,29-hexaazaheptacyclo[20.9.1.1~2,6~.1~11,16~.0~5,10~.0~25,32~.0~27,31~]tetratriaconta-1(31),2(34),3,5,7,9,25(32),26,29-nonaen-18-one], the IC50 in test [1] (setting [3]) turned out to be 938 nM; in test [2] (setting [4]) it was 631 nM.

For the compound `O=C1OCC[C@H]2CCc3cc4[nH]ncc4c(c32)-c2ncc3c(nc(OC[C@@]45CCCN4C[C@H](F)C5)nc3c2F)N2CCOC[C@H](C2)O1` [Example 368, (16S,22R)-34-fluoro-8-(((2R,7aS)-2-fluorotetrahydro-1H-pyrrolo[1,2-a]pyrrol-7a(5H)-yl)methoxy)-14,17,19-trioxa-3,7,9,11,28,29-hexaazaheptacyclo[20.9.1.1~2,6~.1~11,16~.0~5,10~.0~25,32~.0~27,31~]tetratriaconta-1(31),2(34),3,5,7,9,25(32),26,29-nonaen-18-one], the results for the IC50 in test [1] (setting [3]) and in test [2] (setting [4]) were 1230 nM and 783 nM, respectively.

Consider `O[C@H]1C[C@@H]2CN(C1)c1nc(OC[C@@]34CCCN3C[C@H](F)C4)nc3c(F)c(ncc13)-c1c(c(Cl)cc3[nH]ncc13)CCCc1nc2no1` [Example 378], for which the IC50 in test [1] (setting [5]) stood at 34 nM; in test [2] (setting [6]), 15 nM.

Take `Fc1c2ncc3c(nc(OC[C@@]45CCCN4C[C@H](F)C5)nc13)N1CCC[C@@H](C1)c1cnc(o1)CCCc1c(Cl)cc3[nH]ncc3c1-2` [Example 386, (18S)-9-chloro-31-fluoro-25-(((2R,7aS)-2-fluorotetrahydro-1H-pyrrolo[1,2-a]pyrrol-7a(5H)-yl)methoxy)-33-oxa-5,6,15,22,24,26,30-heptaazaheptacyclo[25.3.1.1~14,17~.1~18,22~.0~2,10~.0~3,7~.0~23,28~]tritriaconta-1(31),2,4,7,9,14,16,23,25,27,29-undecaene]: the figures for the IC50 in test [1] (setting [5]) and in test [2] (setting [6]) were 3730 nM and 1810 nM, respectively.

As to `Fc1c2ncc3c(nc(OC[C@@]45CCCN4C[C@H](F)C5)nc13)N1CCO[C@@H](C1)c1coc(n1)CCCc1c(Cl)cc3[nH]ncc3c1-2` [Example 389, (18S)-9-chloro-31-fluoro-25-(((2R,7aS)-2-fluorotetrahydro-1H-pyrrolo[1,2-a]pyrrol-7a(5H)-yl)methoxy)-15,19-dioxa-5,6,22,24,26,30,33-heptaazaheptacyclo[25.3.1.1~14,17~.1~18,22~.0~2,10~.0~3,7~.0~23,28~]tritriaconta-1(31),2,4,7,9,14(33),16,23,25,27,29-undecaene], the results for the IC50 in test [1] (setting [5]) and in test [2] (setting [6]) were 3960 nM and 1020 nM, respectively.

For `Fc1c2ncc3c(nc(OC[C@@]45CCCN4C[C@H](F)C5)nc13)N1CCO[C@@H](COCC[C@H]3C[C@H]3c3c(Cl)cc4[nH]ncc4c3-2)C1` [Example 393, (11R,13R,18R)-9-chloro-31-fluoro-25-(((2R,7aS)-2-fluorotetrahydro-1H-pyrrolo[1,2-a]pyrrol-7a(5H)-yl)methoxy)-16,19-dioxa-5,6,22,24,26,30-hexaazaheptacyclo[25.3.1.1~18,22~.0~2,10~.0~3,7~.0~11,13~.0~23,28~]dotriaconta-1(31),2,4,7,9,23,25,27,29-nonaene], the IC50 in test [1] (setting [5]) was 1810 nM; in test [2] (setting [6]), 1170 nM.
